Drawing on patent publication US12559506B2, “Indazole based compounds and associated methods of use” (Arvinas Operations, Inc., priority 2021, dated 2026), this text covers Dmax and DC50 for twelve compounds.

In the assay the target is T1, LRRK2 (endogenous, HiBit tagged) (Homo sapiens, UniProt Q5S007).
T1 construct: endogenous in cells; host or cells: HEK293 cells with HiBit knock-in at the endogenous LRRK2 locus, stably expressing firefly luciferase
As to the kind of experiment: Endogenous LRRK2 degradation assay, endogenous gene C-terminally HiBit-tagged in HEK293 cells (Nano-Glo Dual Luciferase). Type of assay: cell-based. The text has this: Exemplary Assay for Testing LRRK2 Degradation Driven by Exemplary Hetero-Bifunctional Compounds Designed to Target LRRK2
The assay measures the degradation of LRRK2 in cells where the C-terminus (3′) of the endogenous gene has been tagged with a HiBit sequence in HEK293 cells. The cells also express firefly luciferase, expressed from a Cytomegalovirus promoter and introduced into the HiBit tagged cells and stably expressed. The Nano-Glo® Dual Luciferase Reporter Assay System (Promega™, Madison, WI) was utilized.
Day 1—Preparation of Compound and Assay Plates. Two sets of plates were prepared: a triplicate set for the HiBit assay in white 384-well plates and a triplicate set of plate in black 384-well plates for the Alamar Blue cell viability assay. Briefly, the growth media (DMEM+Glutamax-10% fetal bovine serum-1% Penicillin-Streptomicin) from two T128 flasks was aspirated from the flasks. Cells were washed with Dulbecco's Phosphate Buffered Saline (dPBS) and aspirated. Trypsin (3 mL per flask) was added and the flasks were incubated for 2-3 minutes.
Ten mL of OptiMEM-10% fetal bovine-1% penicillin-streptomycin (hereinafter, “OptiMEM media”) was added to the flask and the cells and transferred to a 50 mL conical tube. A cell count (25 ul of cell into Effendorf vial+25 ul of Trypan Blue Stain) was performed and the cell density adjusted to 15,000 cell/45 μl/well (3.33×10^5/mL) in OptiMEM media.
Fourty-five microliters of the cell suspension (15,000 cells) was aliquoted to each well of the white 384-well plate. The plates incubated at room temperature for 10 minutes before being placed in the 37° C.+5% CO2 incubator overnight
Day 2—Compound Treatment. Exemplary compounds were prepared at a 1 mM starting concentration and 1:3 serial dilution for 11 points CRC prepared and stored in the freezer. The Master Compound Plate was thawed overnight at room temperature. DMSO (20 μL) was added into column 24 of the Master Compound Plate for negative control and 20 μL of 300 μM of Compound 4 in column 23 as positive control.
Intermediate Compound Plate with 4% DMSO in OptiMEM Media. DMSO was added to warm OptiMEM media to achieve a 4% DMSO solution (approximately 50 mL/plate). One-hundred microliters of the OptiMEM-4% DMSO was aliquoted to each well of 384-Well Deep Well Microplates.
The Master Compound Plate and the Intermediate Compound Plate were spun down.
One microliter of compound from the Master Compound Plate was transferred into the Intermediate plate (a 1:100 dilution). The diluted mixture was mixed and 5 μL transferred into the assay plate (a 1:10 dilution) for the final starting concentration of 1 μM. The Treated Assay plates were incubated for 24 hours at 37° C.+5% CO2. The Master Compound Plate was sealed and store at room temperature for a second run that was performed within a week.
Day 3—HiBit Assay. Five microliters of Alamar Blue was added to each well of the black 384-well plates. The plates were incubated for 2 hours in the incubator (37° C.+5% CO2) and at room temperature for one hour. Fluorescence of each plate was read on a plated reader for the Alamar Blue viability assay.
One set of white assay plates was warmed to room temperature (45 minute).
The One Glo luciferase mixture was prepared. The media from white 384-well assay plates was aspirated. Twenty-five μL of the One Glo luciferase mixture was added to each well of the assay plates. The plates were incubated on the bench (room temperature) for 45 minutes, including 10 minutes of shaking at 700 rpm. The luminescence of each plate was read on a plate reader.
1:100 DLR substrate and 1:100 LgBiT Protein dilution were added to the Promega Stop and Glo buffer and mixed just before addition to assay plates. Twenty-five microliters of Stop and Glo mixture was added to each well. Assay plates incubated for at least 45 minutes, including 10 minutes of shaking at 700 rpm. The luminescence of each plate was read on a plate reader.
Analysis of LRRK2 HiBit Screening assays. […]
A general note: With HiBiT, luminescence reflects the tagged protein that the partner subunit can reach.

Where [1] appears, read: endogenous HiBit-tagged LRRK2 in HEK293 cells, 24 hours treatment, read-out: **Endogenous WT Dmax (%).
The mark [2] stands for this setting: endogenous HiBit-tagged LRRK2 in HEK293 cells, 24 hours treatment, read-out: *Endogenous WT DC50.
[3] abbreviates: endogenous HiBit-tagged LRRK2 in HEK293 cells, 24 hours treatment, read-out: Endogenous WT DC50.
Setting [4] is: endogenous HiBit-tagged LRRK2 in HEK293 cells, 24 hours treatment, read-out: Endogenous WT Dmax.
[5] abbreviates: endogenous HiBit-tagged LRRK2, HEK293 cells, 24 hours, read-out: **Endogenous WT Dmax (%).
The mark [6] stands for this setting: endogenous HiBit-tagged LRRK2, HEK293 cells, 24 hours, read-out: *Endogenous WT DC50.

SMILES strings stand for the structures. Where two headings read alike, the source gives them in different places. Where only a bound is given, the exact number is not on record here.

T1 sequence (Q5S007 whole entry): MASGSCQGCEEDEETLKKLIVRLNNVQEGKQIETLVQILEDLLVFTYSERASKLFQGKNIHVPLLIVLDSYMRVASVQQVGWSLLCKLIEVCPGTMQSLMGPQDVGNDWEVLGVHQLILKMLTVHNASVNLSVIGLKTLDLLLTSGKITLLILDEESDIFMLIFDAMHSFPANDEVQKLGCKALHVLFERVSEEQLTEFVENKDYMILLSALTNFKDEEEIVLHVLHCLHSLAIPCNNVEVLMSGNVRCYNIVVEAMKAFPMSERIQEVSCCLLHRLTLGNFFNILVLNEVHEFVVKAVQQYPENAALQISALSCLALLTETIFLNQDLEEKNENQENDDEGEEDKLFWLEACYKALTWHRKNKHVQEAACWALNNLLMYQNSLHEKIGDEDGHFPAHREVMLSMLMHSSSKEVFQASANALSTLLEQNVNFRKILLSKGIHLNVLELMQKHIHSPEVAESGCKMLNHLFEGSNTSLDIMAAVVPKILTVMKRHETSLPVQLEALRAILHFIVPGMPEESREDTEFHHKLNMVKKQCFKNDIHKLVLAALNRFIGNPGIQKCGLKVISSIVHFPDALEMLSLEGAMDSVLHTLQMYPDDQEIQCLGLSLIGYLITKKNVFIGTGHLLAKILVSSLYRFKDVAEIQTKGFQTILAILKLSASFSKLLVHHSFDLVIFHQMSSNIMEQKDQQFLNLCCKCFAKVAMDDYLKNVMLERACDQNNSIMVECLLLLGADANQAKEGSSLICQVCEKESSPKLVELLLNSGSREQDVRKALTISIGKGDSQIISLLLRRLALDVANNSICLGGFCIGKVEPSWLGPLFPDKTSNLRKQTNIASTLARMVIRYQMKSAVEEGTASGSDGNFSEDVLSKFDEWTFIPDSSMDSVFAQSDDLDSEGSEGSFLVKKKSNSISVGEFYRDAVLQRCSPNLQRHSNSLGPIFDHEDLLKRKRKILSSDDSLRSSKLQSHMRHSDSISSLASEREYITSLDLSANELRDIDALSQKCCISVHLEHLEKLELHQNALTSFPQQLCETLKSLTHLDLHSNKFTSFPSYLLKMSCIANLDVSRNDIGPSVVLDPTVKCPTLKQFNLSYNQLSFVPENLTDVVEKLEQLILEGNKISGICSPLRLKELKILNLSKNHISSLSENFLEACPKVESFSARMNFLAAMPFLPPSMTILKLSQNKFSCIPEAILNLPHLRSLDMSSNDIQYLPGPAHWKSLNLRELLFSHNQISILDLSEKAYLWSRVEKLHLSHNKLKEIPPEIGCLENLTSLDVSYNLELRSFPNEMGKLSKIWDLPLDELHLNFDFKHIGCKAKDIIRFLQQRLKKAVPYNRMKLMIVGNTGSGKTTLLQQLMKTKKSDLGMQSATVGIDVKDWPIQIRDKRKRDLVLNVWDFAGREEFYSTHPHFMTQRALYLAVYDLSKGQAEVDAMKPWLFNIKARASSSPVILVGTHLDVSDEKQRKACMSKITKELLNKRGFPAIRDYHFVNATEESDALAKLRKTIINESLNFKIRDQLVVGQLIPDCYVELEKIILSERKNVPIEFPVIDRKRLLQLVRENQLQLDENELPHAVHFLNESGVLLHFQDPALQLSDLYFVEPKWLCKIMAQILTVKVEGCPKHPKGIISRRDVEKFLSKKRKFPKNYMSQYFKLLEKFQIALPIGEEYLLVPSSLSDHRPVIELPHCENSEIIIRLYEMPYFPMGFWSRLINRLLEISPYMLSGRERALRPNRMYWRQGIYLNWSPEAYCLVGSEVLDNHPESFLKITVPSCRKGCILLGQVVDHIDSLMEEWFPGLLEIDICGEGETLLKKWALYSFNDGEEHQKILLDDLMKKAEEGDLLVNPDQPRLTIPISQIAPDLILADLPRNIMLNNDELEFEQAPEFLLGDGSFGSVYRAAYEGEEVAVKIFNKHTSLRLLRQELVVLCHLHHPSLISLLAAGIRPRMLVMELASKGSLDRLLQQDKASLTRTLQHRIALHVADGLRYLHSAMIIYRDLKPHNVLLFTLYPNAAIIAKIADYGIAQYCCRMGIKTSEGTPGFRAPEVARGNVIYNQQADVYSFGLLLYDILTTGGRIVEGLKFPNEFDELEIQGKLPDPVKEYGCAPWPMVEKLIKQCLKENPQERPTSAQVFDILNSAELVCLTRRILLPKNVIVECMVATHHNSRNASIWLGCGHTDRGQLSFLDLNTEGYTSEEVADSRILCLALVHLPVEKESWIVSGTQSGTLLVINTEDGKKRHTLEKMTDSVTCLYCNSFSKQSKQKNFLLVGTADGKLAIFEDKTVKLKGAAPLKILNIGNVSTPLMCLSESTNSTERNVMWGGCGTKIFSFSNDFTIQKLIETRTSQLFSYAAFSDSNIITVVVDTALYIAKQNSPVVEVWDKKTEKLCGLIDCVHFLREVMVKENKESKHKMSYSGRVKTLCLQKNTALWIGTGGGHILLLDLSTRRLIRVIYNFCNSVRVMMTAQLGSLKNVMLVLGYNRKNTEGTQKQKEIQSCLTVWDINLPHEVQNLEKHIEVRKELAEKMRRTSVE

For orientation: Dmax means the greatest extent of degradation seen. The DC50 is the midpoint of the concentration-degradation curve. As for `COc1c(N2CCC3(CC2)CN([C@H]2C[C@H](OC4CCN(c5cc(-c6[nH]nc7ccc(OC8(C)CC8)cc67)ncn5)CC4)C2)C3)ccc2c1CN(C1CCC(=O)NC1=O)C2=O` (stereo partly drawn) [Compound 315, 3-(4-methoxy-1-oxo-5-{2-[(1r,3r)-3-[(1-{6-[5-(1-methylcyclopropoxy)-2H-indazol-3-yl]pyrimidin-4-yl}piperidin-4-yl)oxy]cyclobutyl]-2,7-diazaspiro[3.5]nonan-7-yl}-2,3-dihydro-1H-isoindol-2-yl)piperidine-2,6-dione], the maximal degradation (Dmax) under setting [1] was 50 to 70%. The half-maximal degradation concentration (DC50) under setting [2] is less than 10 nM.

With `COc1c(N2CCN(C[C@H]3CC[C@H](CN4CCN(c5cc(-c6n[nH]c7ccc(OC8(C)CC8)cc67)ncn5)CC4)CC3)CC2)ccc2c1CN(C1CCC(=O)NC1=O)C2=O` (stereo partly drawn) [Compound 265, 3-[4-methoxy-1-oxo-5-(4-{[(1r,4r)-4-[(4-{6-[5-(1-methylcyclopropoxy)-1H-indazol-3-yl]pyrimidin-4-yl}piperazin-1-yl)methyl]cyclohexyl]methyl}piperazin-1-yl)-2,3-dihydro-1H-isoindol-2-yl]piperidine-2,6-dione], the greatest degradation seen (Dmax) under setting [1] was not below 70%. Further, under setting [2], the DC50 was less than 10 nM.

On to `COc1c(N2CC3(CCN([C@H]4C[C@H](OC5CCN(c6cc(-c7[nH]nc8ccc(OC9(C)CC9)cc78)ncn6)CC5)C4)CC3)C2)ccc2c1CN(C1CCC(=O)NC1=O)C2=O` (stereo partly drawn) [Compound 344, 3-(4-methoxy-1-oxo-5-{7-[(1r,3r)-3-[(1-{6-[5-(1-methylcyclopropoxy)-2H-indazol-3-yl]pyrimidin-4-yl}piperidin-4-yl)oxy]cyclobutyl]-2,7-diazaspiro[3.5]nonan-2-yl}-2,3-dihydro-1H-isoindol-2-yl)piperidine-2,6-dione], for which the Dmax under setting [1] was 50 to 70%. Under setting [2], the 50% degradation concentration (DC50) was less than 10 nM.

Take `CC1(Oc2cc3c(-c4cc(N5CCC(O[C@H]6CC[C@H](CN7CCN(c8ccc9c(c8F)CN(C8CCC(=O)NC8=O)C9=O)CC7)CC6)CC5)ncn4)n[nH]c3cn2)CC1` (stereo partly drawn) [Compound 254, 3-[4-fluoro-1-oxo-5-(4-{[(1r,4r)-4-[(1-{6-[5-(1-methylcyclopropoxy)-1H-pyrazolo[3,4-c]pyridin-3-yl]pyrimidin-4-yl}piperidin-4-yl)oxy]cyclohexyl]methyl}piperazin-1-yl)-2,3-dihydro-1H-isoindol-2-yl]piperidine-2,6-dione]: the half-maximal degradation concentration (DC50) under setting [3] is less than 10 nM. The maximal degradation (Dmax) under setting [4] is 50 to 70%.

As to `CC1(Oc2cc3c(-c4cc(N5CCC(CN6CCC(F)(CN7CCN(c8ccc9c(c8F)CN(C8CCC(=O)NC8=O)C9=O)CC7)CC6)CC5)ncn4)n[nH]c3cn2)CC1` (stereo not drawn) [Compound 343, 3-{4-fluoro-5-[4-({4-fluoro-1-[(1-{6-[5-(1-methylcyclopropoxy)-1H-pyrazolo[3,4-c]pyridin-3-yl]pyrimidin-4-yl}piperidin-4-yl)methyl]piperidin-4-yl}methyl)piperazin-1-yl]-1-oxo-2,3-dihydro-1H-isoindol-2-yl}piperidine-2,6-dione], the Dmax under setting [1] is 50 to 70%. In addition, under setting [2], the 50% degradation concentration (DC50) was less than 10 nM.

On to `COc1c(N2CCC(CN3CC[C@H](OC4CCN(c5cc(-c6n[nH]c7ccc(OC8(C)CC8)cc67)ncn5)CC4)CC3(C)C)CC2)ccc2c1CN(C1CCC(=O)NC1=O)C2=O` (stereo partly drawn) [Compound 325, 3-(5-(4-(((S)-2,2-dimethyl-4-((1-(6-(5-(1-methylcyclopropoxy)-1H-indazol-3-yl)pyrimidin-4-yl)piperidin-4-yl)oxy)piperidin-1-yl)methyl)piperidin-1-yl)-4-methoxy-1-oxoisoindolin-2-yl)piperidine-2,6-dione], for which, under setting [1], the Dmax was 50 to 70%. Moreover, under setting [2], the DC50 is less than 10 nM.

Regarding `CC1(Oc2ccc3n[nH]c(-c4cc(N5CCN(C[C@H]6CC[C@H](OC7CCN(c8cc9c(cc8F)C(=O)N(C8CCC(=O)NC8=O)C9)CC7)CC6)CC5)ncn4)c3c2)CC1` (stereo partly drawn) [Compound 235, 3-[6-fluoro-5-[4-[4-[[4-[6-[5-(1-methylcyclopropoxy)-2H-indazol-3-yl]pyrimidin-4-yl]piperazin-1-yl]methyl]cyclohexoxy]-1-piperidyl]-1-oxo-isoindolin-2-yl]piperidine-2,6-dione], under setting [3], the DC50 is less than 10 nM. The Dmax under setting [4] was 50 to 70%.

Regarding `CC1(Oc2cc3c(-c4cc(N5CCC(CN6CCN(CC7CCN(c8ccc9c(c8)C(=O)N(C8CCC(=O)NC8=O)C9=O)CC7)CC6)CC5)ncn4)n[nH]c3cn2)CC1` (stereo not drawn) [Compound 178, 2-(2,6-dioxo-3-piperidyl)-5-[4-[[4-[[1-[6-[5-(1-methylcyclopropoxy)-1H-pyrazolo[3,4-c]pyridin-3-yl]pyrimidin-4-yl]-4-piperidyl]methyl]piperazin-1-yl]methyl]-1-piperidyl]isoindoline-1,3-dione], the greatest degradation seen (Dmax) under setting [5] was not below 70%. For the same compound, the DC50 under setting [6] is less than 10 nM.

For the compound `COc1cc2c(cc1N1CCC(CN3CCN(CC4CCN(c5cc(-c6n[nH]c7ccc(OC8(C)CC8)cc67)ncn5)CC4)CC3)CC1)CN(C1CCC(=O)NC1=O)C2=O` (stereo not drawn) [Compound 194, 3-[6-methoxy-5-[4-[[4-[[1-[6-[5-(1-methylcyclopropoxy)-1H-indazol-3-yl]pyrimidin-4-yl]-4-piperidyl]methyl]piperazin-1-yl]methyl]-1-piperidyl]-1-oxo-isoindolin-2-yl]piperidine-2,6-dione], the greatest degradation seen (Dmax) under setting [5] was not below 70%. Moreover, the DC50 under setting [6] was less than 10 nM.

Consider `C[C@H]1CN(c2cc(-c3n[nH]c4ccc(OC5(C)CC5)cc34)ncn2)CCN1CC1(F)CN(CC2CCN(c3ccc4c(c3)C(=O)N(C3CCC(=O)NC3=O)C4=O)CC2)C1` (stereo partly drawn) [Compound 123, 2-(2,6-dioxopiperidin-3-yl)-5-{4-[(3-fluoro-3-{[(2S)-2-methyl-4-{6-[5-(1-methylcyclopropoxy)-1H-indazol-3-yl]pyrimidin-4-yl}piperazin-1-yl]methyl}azetidin-1-yl)methyl]piperidin-1-yl}-2,3-dihydro-1H-isoindole-1,3-dione], for which the maximal degradation (Dmax) (endogenous HiBit-tagged LRRK2 in HEK293 cells, 24 hours, read-out: **Endogenous WT Dmax (%)) was less than 50%. For the same compound, the DC50 (endogenous HiBit-tagged LRRK2 in HEK293 cells, 24 hours, read-out: *Endogenous WT DC50) was less than 10 nM.

Turning to `COc1c(N2CCC(CN3C[C@@H](C)N(CC4CCN(c5cc(-c6n[nH]c7ccc(OC8(C)CC8)cc67)ncn5)CC4)[C@@H](C)C3)CC2)ccc2c1CN(C1CCC(=O)NC1=O)C2=O` (stereo partly drawn) [Compound 287, 3-[5-(4-{[(3R,5S)-3,5-dimethyl-4-[(1-{6-[5-(1-methylcyclopropoxy)-1H-indazol-3-yl]pyrimidin-4-yl}piperidin-4-yl)methyl]piperazin-1-yl]methyl}piperidin-1-yl)-4-methoxy-1-oxo-2,3-dihydro-1H-isoindol-2-yl]piperidine-2,6-dione], the Dmax under setting [1] was in the range of 50 to 70%. Further, the DC50 under setting [2] was less than 10 nM.

For the compound `CC1(Oc2ccc3[nH]nc(-c4cc(N5CCC(CN6CCN(CC7CCN(c8ccc9c(c8F)CN(C8CCC(=O)NC8=O)C9=O)CC7)CC6)CC5)ncn4)c3c2)CC1` (stereo not drawn) [Compound 181, 3-[4-fluoro-5-[4-[[4-[[1-[6-[5-(1-methylcyclopropoxy)-1H-indazol-3-yl]pyrimidin-4-yl]-4-piperidyl]methyl]piperazin-1-yl]methyl]-1-piperidyl]-1-oxo-isoindolin-2-yl]piperidine-2,6-dione], the Dmax under setting [5] was not below 70%. The 50% degradation concentration (DC50) under setting [6] is less than 10 nM.
